Reference: the CheMixHub viscosity set

Test: xn = mol fraction of the nth substance listed

CC(=O)CC(C)C + CCC(C)(C)O
viscosity [mPa·s]
Details | 298.15 K | 303.15 K | 308.15 K | 313.15 K
101 kPa, x1 = 0.1 | 2.52 | – | – | –
101 kPa, x1 = 0.2 | 1.823 | – | – | –
101 kPa, x1 = 0.3 | 1.376 | – | – | –
101 kPa, x1 = 0.4 | 1.1 | – | – | –
101 kPa, x1 = 0.5 | 0.928 | – | – | –
101 kPa, x1 = 0.6 | 0.815 | – | – | –
101 kPa, x1 = 0.7 | 0.727 | – | – | –
101 kPa, x1 = 0.8 | 0.65 | – | – | –
101 kPa, x1 = 0.9 | 0.584 | – | – | –
101.3 kPa, x1 = 0.1053 | 2.5 | 2.11 | 1.79 | 1.52
101.3 kPa, x1 = 0.1952 | 1.77 | 1.52 | 1.32 | 1.15
101.3 kPa, x1 = 0.305 | 1.37 | 1.21 | 1.07 | 0.951
101.3 kPa, x1 = 0.4324 | 1.05 | 0.946 | 0.856 | 0.776
101.3 kPa, x1 = 0.495 | 0.95 | 0.866 | 0.786 | 0.721
101.3 kPa, x1 = 0.6 | 0.813 | 0.747 | 0.69 | 0.64
101.3 kPa, x1 = 0.7004 | 0.719 | 0.671 | 0.627 | 0.587
101.3 kPa, x1 = 0.7937 | 0.641 | 0.603 | 0.569 | 0.538
101.3 kPa, x1 = 0.9001 | 0.589 | 0.558 | 0.529 | 0.503

O=C1CCCCC1 + CCC(C)=O
298.15 K, 101 kPa
Details | viscosity [mPa·s]
x1 = 0.0755 | 0.45
x1 = 0.1552 | 0.523
x1 = 0.2395 | 0.576
x1 = 0.3288 | 0.655
x1 = 0.4235 | 0.739
x1 = 0.5243 | 0.868
x1 = 0.6316 | 1.03
x1 = 0.7461 | 1.258
x1 = 0.8686 | 1.587

CC(C)CC(=O)CC(C)C + CCC(C)O
viscosity [mPa·s], 100 kPa
Details | x1 = 0.0815 | x1 = 0.157 | x1 = 0.2356 | x1 = 0.3483 | x1 = 0.4431 | x1 = 0.5526 | x1 = 0.6467 | x1 = 0.7381 | x1 = 0.8512 | x1 = 0.9337
293.15 K | 2.84 | 2.17 | 1.64 | 1.1 | 0.8 | 0.61 | 0.59 | 0.66 | 0.78 | 0.87
298.15 K | 2.36 | 1.82 | 1.36 | 0.88 | 0.63 | 0.47 | 0.45 | 0.54 | 0.69 | 0.81
303.15 K | 2 | 1.54 | 1.15 | 0.73 | 0.5 | 0.37 | 0.35 | 0.44 | 0.61 | 0.75
308.15 K | 1.69 | 1.33 | 0.99 | 0.64 | 0.44 | 0.31 | 0.27 | 0.36 | 0.56 | 0.72
313.15 K | 1.42 | 1.11 | 0.85 | 0.55 | 0.39 | 0.27 | 0.24 | – | 0.51 | 0.66
318.15 K | 1.23 | 0.99 | 0.77 | 0.5 | 0.35 | 0.22 | 0.19 | 0.27 | 0.47 | 0.62
323.15 K | 1.11 | 0.91 | 0.72 | 0.46 | 0.3 | 0.17 | 0.15 | 0.23 | 0.42 | 0.57

O=C1CCCCC1 + CCC(C)O
298.15 K, 101 kPa
Details | viscosity [mPa·s]
x1 = 0.1006 | 2.33
x1 = 0.209 | 1.9
x1 = 0.3005 | 1.66
x1 = 0.403 | 1.55
x1 = 0.4997 | 1.51
x1 = 0.6988 | 1.57
x1 = 0.8007 | 1.66
x1 = 0.8986 | 1.79

CC(=O)CC(C)C + CCCC(C)O
viscosity [mPa·s], 101.3 kPa
Details | x1 = 0.1036 | x1 = 0.2131 | x1 = 0.3003 | x1 = 0.3959 | x1 = 0.5098 | x1 = 0.5963 | x1 = 0.6924 | x1 = 0.7942 | x1 = 0.9001
298.15 K | 2.26 | 1.61 | 1.32 | 1.12 | 0.924 | 0.821 | 0.712 | 0.646 | 0.589
303.15 K | 1.93 | 1.41 | 1.16 | 1.01 | 0.848 | 0.76 | 0.664 | 0.607 | 0.557
308.15 K | 1.65 | 1.25 | 1.05 | 0.91 | 0.78 | 0.705 | 0.62 | 0.571 | 0.527
313.15 K | 1.41 | 1.1 | 0.965 | 0.837 | 0.718 | 0.658 | 0.601 | 0.553 | 0.502

CC(C)CC(=O)CC(C)C + CCCC(C)O
viscosity [mPa·s], 100 kPa
Details | x1 = 0.0794 | x1 = 0.1627 | x1 = 0.2381 | x1 = 0.3487 | x1 = 0.4381 | x1 = 0.5619 | x1 = 0.6565 | x1 = 0.7364 | x1 = 0.8517 | x1 = 0.9341
293.15 K | 3.12 | 2.32 | 1.78 | 1.18 | 0.84 | 0.58 | 0.51 | 0.55 | 0.71 | 0.85
298.15 K | 2.63 | 1.94 | 1.43 | 0.89 | 0.62 | 0.43 | 0.4 | 0.47 | 0.66 | 0.81
303.15 K | 2.24 | 1.68 | 1.21 | 0.76 | 0.52 | 0.34 | 0.32 | 0.41 | 0.6 | 0.76
308.15 K | 1.89 | 1.41 | 1.05 | 0.66 | 0.44 | 0.27 | 0.24 | 0.33 | 0.52 | 0.7
313.15 K | 1.55 | 1.17 | 0.87 | 0.55 | 0.37 | 0.22 | 0.19 | 0.28 | 0.46 | 0.64
318.15 K | 1.28 | 0.98 | 0.75 | 0.49 | 0.32 | 0.18 | 0.16 | 0.24 | 0.42 | 0.59
323.15 K | 1.09 | 0.84 | 0.65 | 0.42 | 0.26 | 0.14 | – | 0.2 | 0.38 | 0.53

CC(C)CC(C)(C)C + CCCCCC
298.15 K, 101 kPa
Details | viscosity [mPa·s]
x1 = 0.05688 | 0.3093
x1 = 0.1612 | 0.3278
x1 = 0.2742 | 0.3441
x1 = 0.3413 | 0.3538
x1 = 0.4585 | 0.373
x1 = 0.5556 | 0.3897
x1 = 0.6116 | 0.3995
x1 = 0.7348 | 0.4226
x1 = 0.7874 | 0.4329
x1 = 0.852 | 0.4445
x1 = 0.9128 | 0.4582
x1 = 0.9559 | 0.4674
x2 = 0.03385 | 0.484
